Experiments:
Experiment in all cases: relative viability (nuclei count vs DMSO), 5 days (fraction); higher = more cells survive
[1] = compound: COc1cc2nc(N3CCCN(C)CC3)nc(NC3CCN(Cc4ccccc4)CC3)c2cc1OC + N=C(N)NC(=N)NCCc1ccccc1 [Phenformin] (partner 250 µM)
Method in brief: (§1)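 Medians of duplicate plates are given as relative viability. That measure is the nuclei count in treated wells divided by the count in vehicle wells. Counts were taken on 4× images of lung cancer cell lines in 1536-well plates, 5 days after pin-tool dosing the day after seeding with one drug alone or a fixed anchor-drug dose plus five library-drug doses (not always all listed) in √10 steps.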

AZD6482 + Linsitinib = compound: Cc1cc([C@@H](C)Nc2ccccc2C(=O)O)c2nc(N3CCOCC3)cc(=O)n2c1 [AZD6482] + C[C@]1(O)C[C@@H](c2nc(-c3ccc4ccc(-c5ccccc5)nc4c3)c3c(N)nccn32)C1 [Linsitinib] (partner 1 µM)
Method in brief: as §1

[2] = compound: COc1cc2nc(N3CCCN(C)CC3)nc(NC3CCN(Cc4ccccc4)CC3)c2cc1OC + Nc1ncn([C@H]2C[C@H](O)[C@@H](CO)O2)c(=O)n1 [Decitabine] (partner 2 µM)
Method in brief: as §1

[3] = compound: COc1cc2nc(N3CCCN(C)CC3)nc(NC3CCN(Cc4ccccc4)CC3)c2cc1OC + Nc1nc2[nH]cc(CCc3ccc(C(=O)N[C@@H](CCC(=O)O)C(=O)O)cc3)c2c(=O)[nH]1 [Pemetrexed] (partner 0.2 µM)
Method in brief: as §1

UMC-11
relative viability ([1]; first compound 0.2 µM): 0.322
relative viability ([1]; first compound 0.6325 µM): 0.346
relative viability ([1]; first compound 2 µM): 0.352
relative viability ([1]; first compound 6.325 µM): 0.243
relative viability (AZD6482 + Linsitinib; first compound 0.08 µM): 0.959
relative viability (AZD6482 + Linsitinib; first compound 0.253 µM): 0.962
relative viability (AZD6482 + Linsitinib; first compound 0.8 µM): 0.987
relative viability (AZD6482 + Linsitinib; first compound 2.53 µM): 0.787
relative viability (AZD6482 + Linsitinib; first compound 8 µM): 1
relative viability ([2]; first compound 0.2 µM): 0.598
relative viability ([2]; first compound 0.6325 µM): 0.577
relative viability ([2]; first compound 2 µM): 0.597
relative viability ([2]; first compound 6.325 µM): 0.451
relative viability ([3]; first compound 0.2 µM): 0.86
relative viability ([3]; first compound 0.6325 µM): 0.773
relative viability ([3]; first compound 2 µM): 0.834
relative viability ([3]; first compound 6.325 µM): 0.588
